The record followed here is patent US20120196854A1, “PHARMACEUTICAL COMPOSITION COMPRISING AROMATIC HETEROCYCLIC COMPOUND” (Kyowa Hakko Kirin Co., Ltd., priority 2009, published 2012).

T1 sequence (O60760 whole entry): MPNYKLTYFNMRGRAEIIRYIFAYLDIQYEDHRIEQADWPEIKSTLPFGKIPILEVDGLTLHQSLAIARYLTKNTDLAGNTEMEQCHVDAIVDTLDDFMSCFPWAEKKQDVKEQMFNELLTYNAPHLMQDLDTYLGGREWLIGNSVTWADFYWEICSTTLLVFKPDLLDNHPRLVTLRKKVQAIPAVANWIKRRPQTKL

One assay concerns the target T1, human H-PGDS (Homo sapiens, UniProt O60760).
T1 construct: purchased Cayman Chemical 10006593
Nature of the assay: H-PGDS inhibitory activity (Prostaglandin D Synthase Inhibitor Screening Assay Kit). Format: biochemical. To be noted: at a concentration of 1 μmol/L; read-out: H-PGDS inhibitory rate. The procedure:
The H-PGDS inhibitory activity of Compound (I) was calculated according to the following protocol attached to Prostaglandin D Synthase Inhibitor Screening Assay Kit (Cat. No. 10006595, Cayman Chemical, Ann Arbor, Mich., USA).
(§1) First, to a 96-well round-bottom plate (Cat. No. 3882-096, Asahi Techno Glass, Chiba), 60 μL/well of an enzyme assay buffer (0.1 mol/L Tris-HCl, pH 8.0), 10 μL/well of a human H-PGDS [Cat. No. 10006593 (human), Cayman Chemical, Ann Arbor, Mich., USA] at a final concentration of 0.125 μg/mL, 10 μL/well of reduced glutathione at a final concentration of 1 mmol/L, and 10 μL/well of Compound (I) diluted with the enzyme assay buffer were added and lightly mixed. The plate was allowed to stand at room temperature for 10 minutes, and then 10 μL/well of prostaglandin H2(PGH2) (Cat. No. 17020, Cayman Chemical) at a final concentration of 50 μmol/L was added thereto to start enzyme reaction. The reaction was allowed to proceed with mixing by a plate mixer for 1 minute. After the enzyme reaction, 10 μL/well of a 4 mg/mL FeCl2-HCl solution prepared by dissolving FeCl2 in 1 mol/L hydrochloric acid was added to stop the reaction and reduce PGH2 simultaneously. The enzyme reaction solution (100 μL/well) was transferred to a 96-well UV-Star half area plate (Cat. No. 675801, Greiner, Frickenhausen, Germany), and measured for absorbance at 232 nm using a microplate reader Power Wave (BioTek Instrument Inc., Winooski, Vt., USA).
The H-PGDS inhibitory activity (inhibitory rate) of Compound (I) was calculated by the following formula.
The H-PGDS inhibitory activity of Compound 133 was calculated according to the following protocol attached to Prostaglandin D Synthase Inhibitor Screening Assay Kit (Cat. No. 10006595, Cayman Chemical, Ann Arbor, Mich., USA).
as §1, with “133” for “(I)”
The H-PGDS inhibitory activity (inhibitory rate) of Compound 133 was calculated according to the method in Test Example 1.
Turning to `O=C(O)c1cc(-c2ccc(NS(=O)(=O)c3ccccc3)cc2)nc2ccc3nn(-c4ccccc4)nc3c12` [Compound 15, 7-(4-benzenesulfonylaminophenyl)-2-phenyl-2H[1,2,3]triazolo[4,5-f]quinoline-9-carboxylic acid], the inhibition at 1 µM was no less than 80%.

With `O=C(NS(=O)(=O)c1ccccc1)c1cccc(-c2cc(C(=O)O)c3c(ccc4nn(-c5ccccc5)nc43)n2)c1` [Compound 26, 7-(3-benzenesulfonylaminocarbonylphenyl)-2-phenyl-2H[1,2,3]triazolo[4,5-f]quinoline-9-carboxylic acid], the inhibition at 1 µM was no less than 80%.

On to `O=C(NS(=O)(=O)c1ccccc1)c1ccc(-c2cc(C(=O)O)c3c(ccc4nn(-c5ccccc5)nc43)n2)cc1` [Compound 28, 7-(4-benzenesulfonylaminocarbonylphenyl)-2-phenyl-2H[1,2,3]triazolo[4,5-f]quinoline-9-carboxylic acid], for which the inhibition at 1 µM was no less than 80%.

As for `CS(=O)(=O)Nc1ccc(-c2cc(C(=O)O)c3c(ccc4nn(-c5ccccc5)nc43)n2)cc1` [Compound 6, 7-(4-methanesulfonylaminophenyl)-2-phenyl-2H[1,2,3]triazolo[4,5-f]quinoline-9-carboxylic acid], the inhibition at 1 µM was no less than 80%.

For `CS(=O)(=O)NC(=O)c1ccc(-c2cc(C(=O)O)c3c(ccc4nn(-c5ccccc5)nc43)n2)cc1` [Compound 13, 7-(4-methanesulfonylaminocarbonylphenyl)-2-phenyl-2H[1,2,3]triazolo[4,5-f]quinoline-9-carboxylic acid], the inhibition at 1 µM is no less than 80%.

`O=C(O)c1cc(-c2cnn(Cc3ccccc3)c2)nc2ccc3nn(-c4cccc(F)c4)nc3c12` [Compound 116, 7-(1-benzyl-1H-pyrazol-4-yl)-2-(3-fluorophenyl)-2H-[1,2,3]-triazolo[4,5-f]quinoline-9-carboxylic acid]: the inhibition at 1 µM was no less than 80%.

Take `CS(=O)(=O)NC(=O)c1cccc(-c2cc(C(=O)O)c3c(ccc4nn(-c5ccccc5)nc43)n2)c1` [Compound 17, 7-(3-methanesulfonylaminocarbonylphenyl)-2-phenyl-2H[1,2,3]triazolo[4,5-f]quinoline-9-carboxylic acid]: the inhibition at 1 µM is no less than 80%.

As to `O=C(O)c1cc(-c2ccc(NS(=O)(=O)c3ccccc3)cc2)nc2ccc3nc(-c4ccccc4)oc3c12` [Compound 53, 7-(4-benzenesulfonylaminophenyl)-2-phenyloxazolo[5,4-f]-quinoline-9-carboxylic acid], the inhibition at 1 µM is no less than 80%.

In the case of `O=C(O)c1cc(-c2cc(C(=O)O)c3c(ccc4nn(-c5cccc(F)c5)nc43)n2)c[nH]1` [Compound 76, 7-(5-carboxy-1H-pyrrol-3-yl)-2-(3-fluorophenyl)-2H-[1,2,3]-triazolo[4,5-f]quinoline-9-carboxylic acid], the inhibition at 1 µM is no less than 80%.

In the case of `Cc1cccc(-n2nc3ccc4nc(-c5ccco5)cc(C(=O)O)c4c3n2)c1` [Compound 102, 7-(furan-2-yl)-2-(3-methylphenyl)-2H-[1,2,3]triazolo[4,5-f]quinoline-9-carboxylic acid], the inhibition at 1 µM is no less than 80%.

The subject of a further assay is PGD2 production in mouse ear. Nature of the assay: Inhibitory effect on PGD2 production in mouse ear caused by allergic reaction. Format: in vivo. The following applies: 3 mg/kg orally, 1 hour before inducing antigen-antibody reaction; BALB/c mice. The procedure: A test of PGD2 production in the mouse ear caused by allergic reaction was conducted according to the evaluation method of passive cutaneous anaphylaxis in the mouse ear by Inagaki et al. (Int.Arch.AllergyAppl. Immunol., 1988, 86 (3), 325-30) with some alteration. […]
One hour after the induction of antigen-antibody reaction, the mice were killed by cervical dislocation and the ears were cut off with scissors. […] The harvested pieces of ear tissue were immediately frozen in liquid nitrogen, and preserved at −80° C. until measurement of the quantity of PGD2.
The quantity of PGD2 was determined in the following manner. […]
Consider `Cc1cccc(-n2nc3ccc4nc(-c5ccco5)cc(C(=O)O)c4c3n2)c1` [Compound 102, 7-(furan-2-yl)-2-(3-methylphenyl)-2H-[1,2,3]triazolo[4,5-f]quinoline-9-carboxylic acid], for which the “inhibition of PGD2 production in mouse ear caused by allergic reaction” value turned out to be 84%.
